Test results published in PubChem BioAssay (NCI).
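48-hour exposure; five concentrations; linearly interpolated endpoints. GI50: concentration for 50% inhibition of growth. Definition used: TGI = concentration required for complete inhibition of growth.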

Legend:
Assay in all cases: NCI anticancer screen, dose series, 48 h
786-0 renal = test system: 786-0 renal
A498 renal = test system: A498 renal
A549 NSCLC = test system: A549 NSCLC
ACHN renal = test system: ACHN renal
BT-549 breast = test system: BT-549 breast
CAKI-1 renal = test system: CAKI-1 renal
CCRF-CEM leukemia = test system: CCRF-CEM leukemia
COLO 205 colon = test system: COLO 205 colon
DU-145 prostate = test system: DU-145 prostate
EKVX NSCLC = test system: EKVX NSCLC
HCC-2998 colon = test system: HCC-2998 colon
HCT-116 colon = test system: HCT-116 colon
HCT-15 colon = test system: HCT-15 colon
HL-60(TB) leukemia = test system: HL-60(TB) leukemia
HOP-62 NSCLC = test system: HOP-62 NSCLC
HOP-92 NSCLC = test system: HOP-92 NSCLC
HS 578T breast = test system: HS 578T breast
HT29 colon = test system: HT29 colon
IGROV1 ovarian = test system: IGROV1 ovarian
K-562 leukemia = test system: K-562 leukemia
KM12 colon = test system: KM12 colon
LOX IMVI melanoma = test system: LOX IMVI melanoma
M14 melanoma = test system: M14 melanoma
MALME-3M melanoma = test system: MALME-3M melanoma
MCF7 breast = test system: MCF7 breast
MDA-MB-231 breast = test system: MDA-MB-231 breast
MDA-MB-435 = test system: MDA-MB-435
MOLT-4 leukemia = test system: MOLT-4 leukemia
NCI-H226 lung = test system: NCI-H226 lung
NCI-H23 lung = test system: NCI-H23 lung
NCI-H460 lung = test system: NCI-H460 lung
NCI-H522 lung = test system: NCI-H522 lung
NCI/ADR-RES ovarian = test system: NCI/ADR-RES ovarian
OVCAR-3 ovarian = test system: OVCAR-3 ovarian
OVCAR-4 ovarian = test system: OVCAR-4 ovarian
OVCAR-5 ovarian = test system: OVCAR-5 ovarian
OVCAR-8 ovarian = test system: OVCAR-8 ovarian
PC-3 prostate = test system: PC-3 prostate
RPMI-8226 leukemia = test system: RPMI-8226 leukemia
RXF 393 renal = test system: RXF 393 renal
SF-268 CNS = test system: SF-268 CNS
SF-295 CNS = test system: SF-295 CNS
SF-539 CNS = test system: SF-539 CNS
SK-MEL-2 melanoma = test system: SK-MEL-2 melanoma
SK-MEL-28 melanoma = test system: SK-MEL-28 melanoma
SK-MEL-5 melanoma = test system: SK-MEL-5 melanoma
SK-OV-3 ovarian = test system: SK-OV-3 ovarian
SN12C renal = test system: SN12C renal
SNB-19 CNS = test system: SNB-19 CNS
SNB-75 CNS = test system: SNB-75 CNS
SR leukemia = test system: SR leukemia
SW-620 colon = test system: SW-620 colon
T-47D breast = test system: T-47D breast
TK-10 renal = test system: TK-10 renal
U251 CNS = test system: U251 CNS
UACC-257 melanoma = test system: UACC-257 melanoma
UACC-62 melanoma = test system: UACC-62 melanoma
UO-31 renal = test system: UO-31 renal

COC(=O)c1c2c(c[n+]([O-])c1C)C(=O)C=C(NCc1ccccc1)C2=O
GI50 (786-0 renal): 295 nM | TGI (786-0 renal): 1220 nM | GI50 (A498 renal): 210 nM | TGI (A498 renal): 1050 nM | GI50 (A549 NSCLC): 227 nM | TGI (A549 NSCLC): 564 nM | GI50 (ACHN renal): 210 nM | TGI (ACHN renal): 579 nM | GI50 (BT-549 breast): 169 nM | TGI (BT-549 breast): 319 nM | GI50 (CAKI-1 renal): 289 nM | TGI (CAKI-1 renal): 1120 nM | GI50 (CCRF-CEM leukemia): 264 nM | TGI (CCRF-CEM leukemia): 955 nM | GI50 (COLO 205 colon): 151 nM | TGI (COLO 205 colon): 372 nM | GI50 (DU-145 prostate): 172 nM | TGI (DU-145 prostate): 316 nM | GI50 (EKVX NSCLC): 205 nM | TGI (EKVX NSCLC): 507 nM | GI50 (HCC-2998 colon): 213 nM | TGI (HCC-2998 colon): 492 nM | GI50 (HCT-116 colon): 189 nM | TGI (HCT-116 colon): 586 nM | GI50 (HCT-15 colon): 151 nM | TGI (HCT-15 colon): 350 nM | GI50 (HL-60(TB) leukemia): 174 nM | TGI (HL-60(TB) leukemia): 445 nM | GI50 (HOP-62 NSCLC): 209 nM | TGI (HOP-62 NSCLC): 590 nM | GI50 (HOP-92 NSCLC): 287 nM | TGI (HOP-92 NSCLC): 822 nM | GI50 (HS 578T breast): 263 nM | TGI (HS 578T breast): 710 nM | GI50 (HT29 colon): 211 nM | TGI (HT29 colon): 1420 nM | GI50 (IGROV1 ovarian): 167 nM | TGI (IGROV1 ovarian): 389 nM | GI50 (K-562 leukemia): 192 nM | TGI (K-562 leukemia): 1860 nM | GI50 (KM12 colon): 222 nM | TGI (KM12 colon): 785 nM | GI50 (LOX IMVI melanoma): 175 nM | TGI (LOX IMVI melanoma): 451 nM | GI50 (M14 melanoma): 161 nM | TGI (M14 melanoma): 315 nM | GI50 (MALME-3M melanoma): 42.3 nM | TGI (MALME-3M melanoma): 153 nM | GI50 (MCF7 breast): 149 nM | TGI (MCF7 breast): 361 nM | GI50 (MDA-MB-231 breast): 200 nM | TGI (MDA-MB-231 breast): 618 nM | GI50 (MDA-MB-435): 125 nM | TGI (MDA-MB-435): 255 nM | GI50 (MOLT-4 leukemia): 203 nM | TGI (MOLT-4 leukemia): 497 nM | GI50 (NCI-H226 lung): 338 nM | TGI (NCI-H226 lung): 1490 nM | GI50 (NCI-H23 lung): 169 nM | TGI (NCI-H23 lung): 421 nM | GI50 (NCI-H460 lung): 215 nM | TGI (NCI-H460 lung): 476 nM | GI50 (NCI-H522 lung): 189 nM | TGI (NCI-H522 lung): 509 nM | GI50 (NCI/ADR-RES ovarian): 237 nM | TGI (NCI/ADR-RES ovarian): 798 nM | GI50 (OVCAR-3 ovarian): 41.3 nM | TGI (OVCAR-3 ovarian): 209 nM | GI50 (OVCAR-4 ovarian): 90.4 nM | TGI (OVCAR-4 ovarian): 225 nM | GI50 (OVCAR-5 ovarian): 192 nM | TGI (OVCAR-5 ovarian): 390 nM | GI50 (OVCAR-8 ovarian): 220 nM | TGI (OVCAR-8 ovarian): 787 nM | GI50 (PC-3 prostate): 208 nM | TGI (PC-3 prostate): 996 nM | GI50 (RPMI-8226 leukemia): 258 nM | TGI (RPMI-8226 leukemia): 843 nM | GI50 (RXF 393 renal): 197 nM | TGI (RXF 393 renal): 521 nM | GI50 (SF-268 CNS): 263 nM | TGI (SF-268 CNS): 929 nM | GI50 (SF-295 CNS): 154 nM | TGI (SF-295 CNS): 298 nM | GI50 (SF-539 CNS): 182 nM | TGI (SF-539 CNS): 353 nM | GI50 (SK-MEL-2 melanoma): 171 nM | TGI (SK-MEL-2 melanoma): 363 nM | GI50 (SK-MEL-28 melanoma): 245 nM | TGI (SK-MEL-28 melanoma): 554 nM | GI50 (SK-MEL-5 melanoma): 140 nM | TGI (SK-MEL-5 melanoma): 274 nM | GI50 (SK-OV-3 ovarian): 425 nM | TGI (SK-OV-3 ovarian): 1600 nM | GI50 (SN12C renal): 156 nM | TGI (SN12C renal): 298 nM | GI50 (SNB-19 CNS): 281 nM | TGI (SNB-19 CNS): 954 nM | GI50 (SNB-75 CNS): 166 nM | TGI (SNB-75 CNS): 309 nM | GI50 (SR leukemia): 204 nM | GI50 (SW-620 colon): 258 nM | TGI (SW-620 colon): 727 nM | GI50 (T-47D breast): 197 nM | TGI (T-47D breast): 653 nM | GI50 (TK-10 renal): 690 nM | TGI (TK-10 renal): 2090 nM | GI50 (U251 CNS): 255 nM | TGI (U251 CNS): 787 nM | GI50 (UACC-257 melanoma): 148 nM | TGI (UACC-257 melanoma): 323 nM | GI50 (UACC-62 melanoma): 154 nM | TGI (UACC-62 melanoma): 304 nM | GI50 (UO-31 renal): 183 nM | TGI (UO-31 renal): 477 nM
